# Data as given in EP4700025A1, “AMIDE COMPOUND, PHARMACEUTICAL COMPOSITION COMPRISING SAME, AND USE THEREOF” (Suzhou Genhouse Bio Co., Ltd., priority 2023, dated 2024).
# Columns and labels:
# HCT-116 = experiment: CCK8 proliferation inhibition, HCT-116; type: cell-based; settings: Homo sapiens, 192 h, CCK8, 8 days after drug treatment
# HCT-116-MTAP^-/- = experiment: CCK8 proliferation inhibition, HCT-116-MTAP^-/-; type: cell-based; settings: Homo sapiens, 192 h; HCT-116-MTAP^-/- (MTAP-deficient); CCK8, 8 days after drug treatment
# A549 = experiment: CCK8 proliferation inhibition, A549; type: cell-based; settings: Homo sapiens, 192 h, CCK8, 8 days after drug treatment
# SDMA [1] = experiment: SDMA Inhibition Assay in HCT-116 cells; type: cell-based; settings: Homo sapiens, HCT-116, 96 hours
# SDMA [2] = experiment: SDMA Inhibition Assay in HCT-116-MTAP^-/- cells; type: cell-based; settings: Homo sapiens, 96 hours
# SDMA [3] = experiment: SDMA Inhibition Assay in A549 cells; type: cell-based; settings: Homo sapiens, A549, 96 hours
# [4] = Pharmacokinetic assay in mice; type: in vivo, Balb/c mice; settings: mouse; for F: PO 10mpk vs IV 2mpk; for AUC(0-inf) / AUC(0-t) / C0 / MRT inf / Vd / Cmax / Tmax: plasma; for MRT inf: read-out: MRT(0-∞); for Vd: read-out: Vz
# Method: Eighteen male Balb/c mice aged 6 to 8 weeks were randomly divided into 2 groups (IV group and PO group). The corresponding compounds were administered to the animals in the IV group by tail intravenous injection at 2 mg/kg, and the corresponding compounds were administered to the animals in the PO group by oral gavage at 10 mg/kg or 100 mg/kg. The animals in the IV group were allowed free access to food and water, and the animals in the PO group were fasted overnight before administration and were fed 4 h after administration. Throughout the experiment, the animals were allowed free access to water. Plasma samples were separately collected at 0.083 h (only group IV), 0.25 h, 0.5 h, 1 h, 2 h, 4 h, 8 h, and 24 h after administration. About 100 µL of blood was collected from the orbit of the animal, placed into a 1.5 mL anticoagulation centrifuge tube, and centrifuged at 8000 rpm and 4 °C for 10 min. The upper plasma sample was transferred to an EP tube. The plasma samples were stored in a refrigerator at -80 °C until sample analysis. Pharmacokinetic parameters of the drug were calculated based on the drug concentration-time data, including the peak concentration Cmax, peak time Tmax, clearance rate CL, steady state apparent volume of distribution Vss, area under drug-time curve AUC, elimination half-life t1/2, bioavailability, and the like. Data below the 80% lower limit of quantification were excluded from the calculation of pharmacokinetic parameters.
# [5] = Pharmacokinetic assay in rats; type: in vivo, SD rats; settings: rat; for AUC(0-inf) / AUC(0-t) / C0 / MRT inf / Vd / Cmax / Tmax: plasma; for MRT inf: read-out: MRT(0-∞); for Vd: read-out: Vz
# Method: In this experimental example, the pharmacokinetic behavior of the test compounds after administration by intravenous injection (IV) and oral gavage (PO) in SD rats was tested.
# On the day of administration, rats were weighed for actual body weight, and the administration volume was calculated. Each compound was tested in two groups with 3 rats in each group; one group was subjected to administration by single intravenous injection, and the other group was subjected to administration by single oral gavage. The whole blood samples were collected via the jugular vein at prescribed time points (0.25 h, 0.5 h, 1 h, 2 h, 4 h, 8 h, and 24 h after administration). After the blood sample collection, the samples were immediately transferred to labeled commercial sample tubes containing K2-EDTA (0.85-1.15 mg), followed by centrifugation (3200× g, 4 °C, 10 min) and plasma collection. The plasma was transferred to a pre-cooled centrifuge tube, frozen in dry ice, and then stored in an ultra-low temperature freezer at -60 °C or lower until the LC-MS/MS analysis was performed.
# Plasma concentrations were determined by the LC-MS/MS method. Plasma drug concentration data for the compounds were processed using a non-compartmental model in the WinNonlin Version 6.3 (Pharsight, Mountain View, CA) pharmacokinetic software. The relevant pharmacokinetic parameters were calculated by a linear-log trapezoidal method.
# [6] = PO 10mpk (IV reference 2mpk; 0.2mpk for I-7)
# [7] = male, Balb/c, 10 mg/kg, PO 10mpk
smiles,measurement,setting,value
Cn1ncc2c(N)nc3cc(F)c(C(=O)N4CCOC[C@@H]4c4ccc5c(c4)OC(F)(F)O5)cc3c21 [Example I-7],EC50,HCT-116,1160 nM
same,EC50,HCT-116-MTAP^-/-,6.6 nM
same,EC50,A549,34.7 nM
same,EC50,SDMA [1],181 nM
same,EC50,SDMA [2],2 nM
same,EC50,SDMA [3],1.2 nM
same,CLz,[4]; IV 2mpk,0.8 L/h/kg
same,R_AUC(t/∞),[4]; IV 2mpk,95.1%
same,t1/2z,[4]; IV 2mpk,1.9 h
same,R_AUC(t/∞),[4]; PO 10mpk,97.1%
same,t1/2z,[4]; PO 10mpk,4.9 h
same,F,[4],159.9%
same,AUC(0-inf),"[4]; 2 mg/kg, IV 2mpk",4.89 µM·h
same,AUC(0-t),"[4]; 2 mg/kg, IV 2mpk",4.65 µM·h
same,C0,"[4]; 2 mg/kg, IV 2mpk",2620 nM
same,MRT inf,"[4]; 2 mg/kg, IV 2mpk",2.7 h
same,Vd,"[4]; 2 mg/kg, IV 2mpk",2.3 L/kg
same,AUC(0-inf),"[4]; 10 mg/kg, PO 10mpk",39.1 µM·h
same,AUC(0-t),"[4]; 10 mg/kg, PO 10mpk",38 µM·h
same,Cmax,"[4]; 10 mg/kg, PO 10mpk",5.01 µM
same,Tmax,"[4]; 10 mg/kg, PO 10mpk",2 h
same,MRT inf,"[4]; 10 mg/kg, PO 10mpk",6.1 h
same,AUC(0-inf),"[5]; 0.2 mg/kg, IV 0.2mpk",0.22 µM·h
same,AUC(0-t),"[5]; 0.2 mg/kg, IV 0.2mpk",0.148 µM·h
same,C0,"[5]; 0.2 mg/kg, IV 0.2mpk",176 nM
same,MRT inf,"[5]; 0.2 mg/kg, IV 0.2mpk",1.8 h
same,Vd,"[5]; 0.2 mg/kg, IV 0.2mpk",3.5 L/kg
same,AUC(0-inf),"[5]; 10 mg/kg, PO 10mpk",9.6 µM·h
same,AUC(0-t),"[5]; 10 mg/kg, PO 10mpk",6.58 µM·h
same,Cmax,"[5]; 10 mg/kg, PO 10mpk",781 nM
same,Tmax,"[5]; 10 mg/kg, PO 10mpk",4.3 h
same,MRT inf,"[5]; 10 mg/kg, PO 10mpk",9.9 h
same,CLz,[5]; IV 0.2mpk,1.9 L/h/kg
same,R_AUC(t/∞),[5]; IV 0.2mpk,67%
same,t1/2z,[5]; IV 0.2mpk,1.3 h
same,R_AUC(t/∞),[5]; PO 10mpk,76.9%
same,t1/2z,[5]; PO 10mpk,8.1 h
same,F,[5]; [6],89.1%
Cn1ncc2c(N)nc3cc(F)c(C(=O)N(Cc4ccc5c(c4)OC(F)(F)O5)C4CC4)cc3c21 [Example I-16],EC50,HCT-116,928 nM
same,EC50,HCT-116-MTAP^-/-,3.8 nM
same,EC50,A549,24.6 nM
same,EC50,SDMA [1],201 nM
same,EC50,SDMA [2],1.2 nM
same,EC50,SDMA [3],0.8 nM
same,AUC(0-inf),"[4]; male, Balb/c, 2 mg/kg, IV 2mpk",6.37 µM·h
same,AUC(0-t),"[4]; male, Balb/c, 2 mg/kg, IV 2mpk",6.24 µM·h
same,C0,"[4]; male, Balb/c, 2 mg/kg, IV 2mpk",1960 nM
same,MRT inf,"[4]; male, Balb/c, 2 mg/kg, IV 2mpk",4.9 h
same,Vd,"[4]; male, Balb/c, 2 mg/kg, IV 2mpk",4.3 L/kg
same,AUC(0-inf),[4]; [7],34.5 µM·h
same,AUC(0-t),[4]; [7],34.4 µM·h
same,Cmax,[4]; [7],4.76 µM
same,Tmax,[4]; [7],1 h
same,MRT inf,[4]; [7],5.2 h
same,CLz,[4]; IV 2mpk,0.7 L/h/kg
same,R_AUC(t/∞),[4]; IV 2mpk,97.9%
same,t1/2z,[4]; IV 2mpk,4.4 h
same,R_AUC(t/∞),[4]; PO 10mpk,99.6%
same,t1/2z,[4]; PO 10mpk,3.1 h
same,F,[4],108%
same,AUC(0-inf),"[5]; SD, 2 mg/kg, IV 2mpk",2.43 µM·h
same,AUC(0-t),"[5]; SD, 2 mg/kg, IV 2mpk",2.15 µM·h
same,C0,"[5]; SD, 2 mg/kg, IV 2mpk",1140 nM
same,MRT inf,"[5]; SD, 2 mg/kg, IV 2mpk",3.1 h
same,Vd,"[5]; SD, 2 mg/kg, IV 2mpk",5.6 L/kg
same,AUC(0-inf),"[5]; SD, 10 mg/kg, PO 10mpk",13.2 µM·h
same,AUC(0-t),"[5]; SD, 10 mg/kg, PO 10mpk",9.06 µM·h
same,Cmax,"[5]; SD, 10 mg/kg, PO 10mpk",808 nM
same,Tmax,"[5]; SD, 10 mg/kg, PO 10mpk",4.7 h
same,MRT inf,"[5]; SD, 10 mg/kg, PO 10mpk",13.2 h
same,CLz,[5]; IV 2mpk,1.9 L/h/kg
same,R_AUC(t/∞),[5]; IV 2mpk,88.8%
same,t1/2z,[5]; IV 2mpk,2.3 h
same,R_AUC(t/∞),[5]; PO 10mpk,71.5%
same,t1/2z,[5]; PO 10mpk,9.3 h
same,F,[5]; [6],84%
Cn1ncc2c(N)nc3cnc(C(=O)N4CCOC[C@@H]4c4ccc5c(c4)OC(F)(F)O5)cc3c21 [Example I-38],EC50,HCT-116,313 nM
same,EC50,HCT-116-MTAP^-/-,7.4 nM
same,EC50,A549,53.7 nM
same,EC50,SDMA [1],147 nM
same,EC50,SDMA [2],1.5 nM
same,EC50,SDMA [3],1.7 nM
same,AUC(0-t),"[4]; 2 mg/kg, IV 2mpk",7.87 µM·h
same,AUC(0-t),"[4]; 100 mg/kg, PO 100mpk",710 µM·h
same,Cmax,"[4]; 100 mg/kg, PO 100mpk",52.1 µM
same,AUC(0-t),"[5]; 2 mg/kg, IV 2mpk",4 µM·h
same,AUC(0-t),"[5]; 100 mg/kg, PO 100mpk",199 µM·h
same,Cmax,"[5]; 100 mg/kg, PO 100mpk",10200 nM
same,F,[5]; PO 100mpk vs IV 2 mpk,99%
